Reference: US10987359B2, “Oxadiazepinone derivatives and methods of treating hepatitis B infections” (priority 2016, dated 2021)

The compounds below were run on HBV (assay: HBV replication inhibition assay (BDNA assay) in HepG2.2.15 cells). Settings: HBV replication assay (BDNA assay), HepG2.2.15 cells; read-out: DNA EC50.
Assay type: cell-based
Method: HBV replication inhibition by the disclosed compounds were determined in cells infected or transfected with HBV or cells with stably integrated HBV, such as HepG2.2.15 cells (Sells et al. 1987). In this example, HepG2.2.15 cells were maintained in cell culture medium containing 10% fetal bovine serum (FBS), Geneticin, L-glutamine, penicillin and streptomycin. HepG2.2.15 cells were seeded in 96-well plates at a density of 40,000 cells/well and were treated with serially diluted compounds at a final DMSO concentration of 0.5% either alone or in combination by adding drugs in a checker box format. Cells were incubated with compounds for three days, after which medium was removed and fresh medium containing compounds was added to cells and incubated for another three days. At day 6, supernatant was removed and treated with DNase at 37° C. for 60 minutes, followed by enzyme inactivation at 75° C. for 15 minutes. Encapsidated HBV DNA was released from the virions and covalently linked HBV polymerase by incubating in lysis buffer (Affymetrix QS0010) containing 2.5 μg proteinase K at 50° C. for 40 minutes. HBV DNA was denatured by addition of 0.2 M NaOH and detected using a branched DNA (BDNA) QuantiGene assay kit according to manufacturer recommendation (Affymetrix). HBV DNA levels were also quantified using qPCR, based on amplification of encapsidated HBV DNA extraction with QuickExtraction Solution (Epicentre Biotechnologies) and amplification of HBV DNA using HBV specific PCR probes that can hybridize to HBV DNA and a fluorescently labeled probe for quantitation. In addition, cell viability of HepG2.2.15 cells incubated with test compounds alone or in combination was determined by using CellTitre-Glo reagent according to the manufacturer protocol (Promega). The mean background signal from wells containing only culture medium was subtracted from all other samples, and percent inhibition at each compound concentration was calculated by normalizing to signals from HepG2.2.15 cells treated with 0.5% DMSO using equation E1. % inhibition=(DMSOave−Xi)/DMSOave×100% E1: […]
where DMSOave is the mean signal calculated from the wells that were treated with DMSO control (0% inhibition control) and Xi is the signal measured from the individual wells. EC50 values, effective concentrations that achieved 50% inhibitory effect, were determined by non-linear fitting using Graphpad Prism software (San Diego, Calif.) and equation E2: Y=Y min+(Y max−Y min)/(1+10(Log EC50−X)×HillSlope) E2: […]
where Y represents percent inhibition values and X represents the logarithm of compound concentrations.
Selected disclosed compounds were assayed in the HBV replication assay (BDNA assay), as described above, and a representative group of these active compounds is shown in Table 7. […] In Table 7, “A” represents 1<EC50≤100; “B” represents 100<EC50≤500; “C” represents 500<EC50≤1000; and “D” represents EC50>1000.

Row | SMILES | EC50 [nM]
1 | CC(=O)NCC1Cn2nc3c(c2C(=O)N(C)O1)CN(C(=O)Nc1ccc(F)c(C#N)c1)[C@H](C)C3 (single isomer, unassigned) [Compound 176_D2, (4R*,9R)-4-(acetamidomethyl)-N-(3-cyano-4-fluorophenyl)-2,9-dimethyl-1-oxo-1,4,5,8,9,11-hexahydropyrido[4′,3′:3,4]pyrazolo[5,1-d][1,2,5]oxadiazepine-10(2H)-carboxamide] | 1 to 100
2 | CNC(=O)C1Cn2nc3c(c2C(=O)N(C)O1)CN(C(=O)Nc1ccc(F)c(Cl)c1F)[C@H](C)C3 (single isomer, unassigned) [Compound 110_D2, (4R*,9R)—N10-(3-chloro-2,4-difluorophenyl)-N4,2,9-trimethyl-1-oxo-1,4,5,8,9,11-hexahydropyrido[4′,3′:3,4]pyrazolo[5,1-d][1,2,5]oxadiazepine-4,10(2H)-dicarboxamide] | 1 to 100
3 | C[C@@H]1Cc2nn3c(c2CN1C(=O)Nc1ccc(F)c(C#N)c1)C(=O)N(C)OC(CNCC(F)F)C3 (stereo in doubt) [Compound 183_D2, (4R*,9R)—N-(3-cyano-4-fluorophenyl)-4-(((2,2-difluoroethyl)amino)methyl)-2,9-dimethyl-1-oxo-1,4,5,8,9,11-hexahydropyrido[4′,3′:3,4]pyrazolo[5,1-d][1,2,5]oxadiazepine-10(2H)-carboxamide] | 1 to 100
4 | Cc1cc(NC(=O)N2Cc3c(nn4c3C(=O)N(C)OC(COCC(F)F)C4)C[C@H]2C)ccc1F (stereo in doubt) [Compound 125_D2, (4R*,9R)-4-((2,2-difluoroethoxy)methyl)-N-(4-fluoro-3-methylphenyl)-2,9-dimethyl-1-oxo-1,4,5,8,9,11-hexahydropyrido[4′,3′:3,4]pyrazolo[5,1-d][1,2,5]oxadiazepine-10(2H)-carboxamide] | 1 to 100

Same assay, conditions: Hepatitis B virus, HepG2.2.15, HBV replication assay (BDNA assay), HepG2.2.15 cells; read-out: DNA EC50

Row | SMILES | EC50 [nM]
5 | C[C@@H]1Cc2nn3c(c2CN1C(=O)Nc1ccnc(Br)c1F)C(=O)N(C)OC(CN(C)C)C3 (stereo in doubt) [Compound 095_D1, (4S*,9R)—N-(2-bromo-3-fluoropyridin-4-yl)-4-((dimethylamino)methyl)-2,9-dimethyl-1-oxo-1,4,5,8,9,11-hexahydropyrido[4′,3′:3,4]pyrazolo[5,1-d][1,2,5]oxadiazepine-10(2H)-carboxamide] | 100 to 500
6 | C[C@@H]1Cc2nn3c(c2CN1C(=O)Nc1ccc(F)c(C#N)c1)C(=O)N(C)N(CCCO)CC3 [Compound 222, (R)—N-(3-Cyano-4-fluorophenyl)-3-(3-hydroxypropyl)-2,9-dimethyl-1-oxo-1,2,3,4,5,8,9,11-octahydro-10H-pyrido[4′,3′:3,4]pyrazolo[5,1-d][1,2,5]triazepine-10-carboxamide] | 100 to 500
7 | C[C@@H]1Cc2nn3c(c2CN1C(=O)Nc1ccc(F)c(C#N)c1)C(=O)N(C)N=C(COCC(F)F)C3 [Compound 237, (R)-N-(3-cyano-4-fluorophenyl)-4-((2,2-difluoroethoxy)methyl)-2,9-dimethyl-1-oxo-1,2,5,8,9,11-hexahydro-10H-pyrido[4′,3′:3,4]pyrazolo[5,1-d][1,2,5]triazepine-10-carboxamide] | 1 to 100
8 | CN1OC(CO)Cn2nc3c(c2C1=O)CN(C(=O)Nc1ccc(F)c(F)c1)CC3 (centres unmarked) [Compound 005, N-(3,4-difluorophenyl)-4-(hydroxymethyl)-2-methyl-1-oxo-1,4,5,8,9,11-hexahydropyrido[4′,3′:3,4]pyrazolo[5,1-d][1,2,5]oxadiazepine-10(2H)-carboxamide] | 1 to 100
9 | CN1OC(CF)Cn2nc3c(c2C1=O)CN(C(=O)Nc1cccc(Cl)c1)CC3 (single isomer, unassigned) [Compound 037_E1, (S*)—N-(3-chlorophenyl)-4-(fluoromethyl)-2-methyl-1-oxo-1,4,5,8,9,11-hexahydropyrido[4′,3′:3,4]pyrazolo[5,1-d][1,2,5]oxadiazepine-10(2H)-carboxamide] | 1 to 100
10 | CC(=O)NCC1Cn2nc3c(c2C(=O)N(C)O1)CN(C(=O)Nc1ccc(F)c(C(F)(F)F)c1)CC3 (single isomer, unassigned) [Compound 175_E1, (S*)-4-(acetamidomethyl)-N-(4-fluoro-3-(trifluoromethyl)phenyl)-2-methyl-1-oxo-1,4,5,8,9,11-hexahydropyrido[4′,3′:3,4]pyrazolo[5,1-d][1,2,5]oxadiazepine-10(2H)-carboxamide] | 1 to 100
11 | CC(C)C(=O)NCC1Cn2nc3c(c2C(=O)N(C)O1)CN(C(=O)Nc1ccc(F)c(Cl)c1)CC3 (centres unmarked) [Compound 200, N-(3-chloro-4-fluorophenyl)-4-(isobutyramidomethyl)-2-methyl-1-oxo-1,4,5,8,9,11-hexahydropyrido[4′,3′:3,4]pyrazolo[5,1-d][1,2,5]oxadiazepine-10(2H)-carboxamide] | 1 to 100
12 | CCc1cccc(NC(=O)N2CCc3nn4c(c3C2)C(=O)N(C)OC(CO)C4)c1 (centres unmarked) [Compound 009, N-(3-ethylphenyl)-4-(hydroxymethyl)-2-methyl-1-oxo-1,4,5,8,9,11-hexahydropyrido[4′,3′:3,4]pyrazolo[5,1-d][1,2,5]oxadiazepine-10(2H)-carboxamide] | 1 to 100
13 | C[C@H]1Cc2nn3c(c2CN1C(=O)Nc1ccc(F)c(Cl)c1)C(=O)N(C)O[C@H](CO)C3 (stereo in doubt) [Compound 069_E1, (4S*,9S*)—N-(3-chloro-4-fluorophenyl)-4-(hydroxymethyl)-2,9-dimethyl-1-oxo-1,4,5,8,9,11-hexahydropyrido[4′,3′:3,4]pyrazolo[5,1-d][1,2,5]oxadiazepine-10(2H)-carboxamide] | 1 to 100
14 | CN1OC(CO)Cn2nc3c(c2C1=O)CN(C(=O)N(C)c1ccc(F)c(Cl)c1)CC3 (centres unmarked) [Compound 045, N-(3-chloro-4-fluorophenyl)-4-(hydroxymethyl)-N,2-dimethyl-1-oxo-1,4,5,8,9,11-hexahydropyrido[4′,3′:3,4]pyrazolo[5,1-d][1,2,5]oxadiazepine-10(2H)-carboxamide] | 100 to 500
15 | CN(C)CC1Cn2nc3c(c2C(=O)N(C)O1)CN(C(=O)Nc1ccc(F)c(Cl)c1)CC3 (centres unmarked) [Compound 058, N-(3-chloro-4-fluoro-phenyl)-4-[(dimethylamino)methyl]-2-methyl-1-oxo-5,8,9,11-tetrahydro-4H-pyrido[2,3]pyrazolo[2,4-d][1,2,5]oxadiazepine-10-carboxamide] | 1 to 100
16 | CN1OC(CO)Cn2nc3c(c2C1=O)CN(C(=O)Nc1cc(F)c(F)c(Cl)c1F)CC3 (single isomer, unassigned) [Compound 137_E1, (S*)—N-(3-chloro-2,4,5-trifluorophenyl)-4-(hydroxymethyl)-2-methyl-1-oxo-1,4,5,8,9,11-hexahydropyrido[4′,3′:3,4]pyrazolo[5,1-d][1,2,5]oxadiazepine-10(2H)-carboxamide] | 1 to 100
17 | CNC(=O)C1Cn2nc3c(c2C(=O)N(C)O1)CN(C(=O)Nc1ccc(F)c(C#N)c1F)[C@H](C)C3 (single isomer, unassigned) [Compound 156_D1, (4S*,9R)—N10-(3-cyano-2,4-difluorophenyl)-N4,2,9-trimethyl-1-oxo-1,4,5,8,9,11-hexahydropyrido[4′,3′:3,4]pyrazolo[5,1-d][1,2,5]oxadiazepine-4,10(2H)-dicarboxamide] | > 1000
18 | CCS(=O)(=O)NCC1Cn2nc3c(c2C(=O)N(C)O1)CN(C(=O)Nc1ccc(F)c(Cl)c1)CC3 (centres unmarked) [Compound 208, N-(3-chloro-4-fluorophenyl)-4-(ethylsulfonamidomethyl)-2-methyl-1-oxo-1,4,5,8,9,11-hexahydropyrido[4′,3′:3,4]pyrazolo[5,1-d][1,2,5]oxadiazepine-10(2H)-carboxamide] | 1 to 100
19 | C[C@@H]1Cc2nn3c(c2CN1C(=O)Nc1ccc(F)c(C(F)(F)F)c1)C(=O)N(C)OC(CN)C3 (stereo in doubt) [Compound 116_D1, (4S*,9R)-4-(aminomethyl)-N-(4-fluoro-3-(trifluoromethyl)phenyl)-2,9-dimethyl-1-oxo-1,4,5,8,9,11-hexahydropyrido[4′,3′:3,4]pyrazolo[5,1-d][1,2,5]oxadiazepine-10(2H)-carboxamide] | 1 to 100
20 | C[C@@H]1Cc2nn3c(c2CN1C(=O)Nc1ccc(F)c(Cl)c1)C(=O)N(C)OC(COCC(F)F)C3 (stereo in doubt) [Compound 121_D2, (4R*,9R)—N-(3-chloro-4-fluorophenyl)-4-((2,2-difluoroethoxy)methyl)-2,9-dimethyl-1-oxo-1,4,5,8,9,11-hexahydropyrido[4′,3′:3,4]pyrazolo[5,1-d][1,2,5]oxadiazepine-10(2H)-carboxamide] | 1 to 100
